We go through eight molecules from US12264156B2, “Compounds and pharmaceutical compositions thereof for the treatment of diseases” (GALAPAGOS NV, priority 2018, dated 2025).

One experiment has as its target T1, SIK1 (Homo sapiens, UniProt P57059).
T1 construct: purchased Carna Biosciences 02-131
Kind of experiment: ADP-Glo kinase assay, SIK1. Format: biochemical. To be noted: ADP-Glo SIK kinase assay. In a few lines: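 Enzyme–substrate mix was started with ATP and incubated 120 min at RT. ADP formed was quantified by ADP-Glo: 40 min ATP depletion, then 30 min detection reagent converting ADP to ATP for luciferase luminescence, which rises with kinase activity. Controls: 1% DMSO and 10 μM staurosporine (final).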

The target of a further experiment is T2, SIK2 (Homo sapiens, UniProt Q9H0K1).
T2 construct: purchased ThermoFisher Scientific PV4792
As to the kind of experiment: ADP-Glo kinase assay, SIK2. To be noted: ADP-Glo SIK kinase assay. Format: biochemical. An outline of the steps:
(§1)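 ADP-Glo, RT throughout. Enz/substrate + ATP, 120 min; ADP-Glo reagent 40 min (ATP depletion); detection reagent 30 min; luminescence read. Neg ctrl 1% DMSO, pos ctrl 10 μM staurosporine, final concs.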

Another experiment has as its target T3, SIK3 (Homo sapiens, UniProt Q9Y2K2).
T3 construct: purchased SignalChem S12-11G-100
Kind of experiment: ADP-Glo kinase assay, SIK3. Format: biochemical. Particulars: ADP-Glo SIK kinase assay. In a few lines: as §1

In experiment [1] the test system is LPS triggered IL-10 secretion in monocyte-derived macrophages (MdM). Kind of experiment: MdM assay: LPS-triggered IL-10 (ELISA). Format: cell-based, human. Particulars: LPS 200 ng/mL, supernatant after 2 h, maximal fold change vs LPS only. An outline of the steps: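 Human CD14+ monocytes differentiated 10 days with 100 ng/mL rhM-CSF into macrophages. Compound preincubated 1 h at 37 °C (0.2% DMSO), then LPS 200 ng/mL. IL-10 in supernatant after 2 h measured by sandwich ELISA.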
(An ELISA detects its analyte on a solid surface through an enzyme-linked reagent.)

T2 sequence (Q9H0K1 whole entry): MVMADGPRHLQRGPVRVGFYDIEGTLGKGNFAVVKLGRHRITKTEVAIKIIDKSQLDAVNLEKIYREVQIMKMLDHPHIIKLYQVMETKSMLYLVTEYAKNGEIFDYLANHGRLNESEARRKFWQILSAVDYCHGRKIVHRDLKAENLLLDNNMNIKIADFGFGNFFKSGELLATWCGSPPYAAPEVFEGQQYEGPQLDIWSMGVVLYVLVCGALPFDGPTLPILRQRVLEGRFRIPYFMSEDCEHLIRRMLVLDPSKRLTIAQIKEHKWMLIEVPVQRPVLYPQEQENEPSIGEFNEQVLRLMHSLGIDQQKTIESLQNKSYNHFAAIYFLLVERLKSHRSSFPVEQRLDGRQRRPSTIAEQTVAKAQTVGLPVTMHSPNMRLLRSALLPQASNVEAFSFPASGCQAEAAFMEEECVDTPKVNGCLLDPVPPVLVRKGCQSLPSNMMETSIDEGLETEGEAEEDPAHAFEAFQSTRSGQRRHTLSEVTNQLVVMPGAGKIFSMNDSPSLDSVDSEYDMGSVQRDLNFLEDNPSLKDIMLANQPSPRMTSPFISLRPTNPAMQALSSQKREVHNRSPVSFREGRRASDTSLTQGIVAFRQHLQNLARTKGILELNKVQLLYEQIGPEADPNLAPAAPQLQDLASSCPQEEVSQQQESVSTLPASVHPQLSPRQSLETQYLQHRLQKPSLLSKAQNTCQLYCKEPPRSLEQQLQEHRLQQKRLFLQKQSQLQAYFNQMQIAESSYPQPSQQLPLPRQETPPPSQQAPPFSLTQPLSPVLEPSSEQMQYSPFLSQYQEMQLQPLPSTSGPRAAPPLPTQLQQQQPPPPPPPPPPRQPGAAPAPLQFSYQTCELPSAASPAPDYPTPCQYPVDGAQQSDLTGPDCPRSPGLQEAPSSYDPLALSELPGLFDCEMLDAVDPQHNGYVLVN
T1 sequence (P57059 whole entry): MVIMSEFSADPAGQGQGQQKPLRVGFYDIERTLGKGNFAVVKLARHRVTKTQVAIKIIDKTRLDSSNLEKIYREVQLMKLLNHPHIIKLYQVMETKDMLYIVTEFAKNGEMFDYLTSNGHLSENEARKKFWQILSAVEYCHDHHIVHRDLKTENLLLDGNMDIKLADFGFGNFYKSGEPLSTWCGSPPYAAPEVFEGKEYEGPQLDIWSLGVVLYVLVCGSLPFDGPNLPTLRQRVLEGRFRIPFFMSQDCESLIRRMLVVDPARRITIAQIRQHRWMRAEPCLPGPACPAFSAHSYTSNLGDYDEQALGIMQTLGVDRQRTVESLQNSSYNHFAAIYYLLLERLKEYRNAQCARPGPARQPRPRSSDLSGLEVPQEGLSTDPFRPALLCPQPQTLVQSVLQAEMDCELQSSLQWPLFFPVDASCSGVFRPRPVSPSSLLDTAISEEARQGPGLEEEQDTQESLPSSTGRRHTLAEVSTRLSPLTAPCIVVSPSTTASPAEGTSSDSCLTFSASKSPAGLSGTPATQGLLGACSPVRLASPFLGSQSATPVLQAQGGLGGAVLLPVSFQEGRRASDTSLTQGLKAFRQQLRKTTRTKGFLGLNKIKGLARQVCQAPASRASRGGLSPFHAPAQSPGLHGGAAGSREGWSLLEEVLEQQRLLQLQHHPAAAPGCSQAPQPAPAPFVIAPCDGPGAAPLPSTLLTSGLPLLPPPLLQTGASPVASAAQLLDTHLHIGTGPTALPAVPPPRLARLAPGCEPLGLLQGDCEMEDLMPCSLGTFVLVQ
T3 sequence (Q9Y2K2 whole entry): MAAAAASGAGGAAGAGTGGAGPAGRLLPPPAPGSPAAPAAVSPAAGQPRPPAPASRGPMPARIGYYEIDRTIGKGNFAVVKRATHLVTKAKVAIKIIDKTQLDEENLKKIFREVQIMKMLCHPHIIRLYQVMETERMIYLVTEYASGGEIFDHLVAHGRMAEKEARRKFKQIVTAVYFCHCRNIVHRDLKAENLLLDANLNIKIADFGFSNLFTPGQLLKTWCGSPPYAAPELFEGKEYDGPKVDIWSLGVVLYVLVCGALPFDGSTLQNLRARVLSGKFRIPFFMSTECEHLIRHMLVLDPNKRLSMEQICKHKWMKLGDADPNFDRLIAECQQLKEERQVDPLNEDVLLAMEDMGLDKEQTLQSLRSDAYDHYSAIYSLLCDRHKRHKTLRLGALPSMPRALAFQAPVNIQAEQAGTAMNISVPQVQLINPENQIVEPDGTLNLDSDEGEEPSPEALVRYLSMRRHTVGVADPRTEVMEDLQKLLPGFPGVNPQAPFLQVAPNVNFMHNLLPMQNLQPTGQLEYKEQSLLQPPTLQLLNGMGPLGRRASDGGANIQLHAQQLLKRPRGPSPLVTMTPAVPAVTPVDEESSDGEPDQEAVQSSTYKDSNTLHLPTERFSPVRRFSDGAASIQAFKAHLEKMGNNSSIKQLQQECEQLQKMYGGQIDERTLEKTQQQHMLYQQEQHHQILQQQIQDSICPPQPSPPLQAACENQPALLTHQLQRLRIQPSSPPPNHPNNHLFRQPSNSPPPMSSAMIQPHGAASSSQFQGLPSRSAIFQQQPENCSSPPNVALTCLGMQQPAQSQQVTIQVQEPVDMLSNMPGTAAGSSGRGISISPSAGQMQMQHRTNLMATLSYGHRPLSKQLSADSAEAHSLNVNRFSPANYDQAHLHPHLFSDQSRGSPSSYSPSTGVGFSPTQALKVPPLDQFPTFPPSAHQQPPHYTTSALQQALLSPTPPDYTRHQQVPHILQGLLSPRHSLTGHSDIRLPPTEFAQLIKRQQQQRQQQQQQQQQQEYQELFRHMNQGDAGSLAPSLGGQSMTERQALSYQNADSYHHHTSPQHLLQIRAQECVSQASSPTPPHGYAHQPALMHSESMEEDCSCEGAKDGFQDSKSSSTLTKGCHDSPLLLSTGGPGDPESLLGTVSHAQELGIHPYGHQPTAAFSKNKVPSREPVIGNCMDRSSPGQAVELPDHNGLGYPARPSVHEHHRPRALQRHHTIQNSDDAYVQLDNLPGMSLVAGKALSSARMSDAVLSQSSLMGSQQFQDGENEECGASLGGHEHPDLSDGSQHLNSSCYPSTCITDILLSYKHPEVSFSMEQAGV

The term IC50 denotes the point on the concentration scale where inhibition reaches its midpoint. Low values mean greater potency, high ones weaker potency. With `COc1cc(-c2cnc3cc(OC[C@@H]4COCCO4)ccn23)cc2c1C(=O)N(CC(F)(F)F)CC2` [compound 225, 6-[7-[[(2S)-1,4-dioxan-2-yl]methoxy]imidazo[1,2-a]pyridin-3-yl]-8-methoxy-2-(2,2,2-trifluoroethyl)-3,4-dihydroisoquinolin-1-one], the IC50 on SIK1 is 100 to 500 nM; against SIK2 it was 0.01 to 10 nM; on SIK3, 0.01 to 10 nM. Besides, the “IL-10 FCmax median” value in experiment [1] is reported as “++ (>1.5-4.5)”.

For `COc1cc(-c2cnc3cc(OCc4nncn4C)ccn23)cc(OC(F)F)c1C(=O)NC1CC1` [compound 227, N-cyclopropyl-2-(difluoromethoxy)-6-methoxy-4-[7-[(4-methyl-1,2,4-triazol-3-yl)methoxy]imidazo[1,2-a]pyridin-3-yl]benzamide], the IC50 against SIK1 lay in the range of 100 to 500 nM; against SIK2, 0.01 to 10 nM; on SIK3 it was 0.01 to 10 nM. For the same molecule, in experiment [1], the “IL-10 FCmax median” value was “++ (>1.5-4.5)”.

As to `COc1cc(-c2cnc3cc(OCCN4CCOC[C@@H]4C)ccn23)cc(OC(F)F)c1C(=O)NC1CC1` [compound 233, N-cyclopropyl-2-(difluoromethoxy)-6-methoxy-4-[7-[2-[(3S)-3-methylmorpholin-4-yl]ethoxy]imidazo[1,2-a]pyridin-3-yl]benzamide], the figures for the IC50 on SIK1, at SIK2 and on SIK3 were 10 to 100 nM, 0.01 to 10 nM and 0.01 to 10 nM, respectively. Besides, the “IL-10 FCmax median” value in experiment [1] was “++ (>1.5-4.5)”.

As for `COc1cc(-c2cnc3cc(OCCN4CCOC[C@H]4C)ccn23)cc(OC(F)F)c1C(=O)NC1CC1` [compound 234, N-cyclopropyl-2-(difluoromethoxy)-6-methoxy-4-[7-[2-[(3R)-3-methylmorpholin-4-yl]ethoxy]imidazo[1,2-a]pyridin-3-yl]benzamide], the IC50 lay within 10 to 100 nM on SIK1, 0.01 to 10 nM against SIK2 and 0.01 to 10 nM at SIK3. Moreover, the “IL-10 FCmax median” value in experiment [1] is on record as “++ (>1.5-4.5)”.

As for `COc1cc(-c2cnc3cc(OCC4(F)CN(C)C4)ccn23)cc2c1C(=O)N(CC(F)(F)F)CC2` [compound 252, 6-[7-[(3-fluoro-1-methyl-azetidin-3-yl)methoxy]imidazo[1,2-a]pyridin-3-yl]-8-methoxy-2-(2,2,2-trifluoroethyl)-3,4-dihydro isoquinolin-1-one], the IC50 was 100 to 500 nM against SIK1, 0.01 to 10 nM against SIK2 and 0.01 to 10 nM against SIK3. Moreover, the “IL-10 FCmax median” value in experiment [1] was “++ (>1.5-4.5)”.

Take `COc1cc(-c2cnc3cc(OCCCN4CCNCC4)ccn23)cc(OC(F)F)c1C(=O)NC1CC1` [compound 278, N-cyclopropyl-2-(difluoromethoxy)-6-methoxy-4-[7-(3-piperazin-1-ylpropoxy)imidazo[1,2-a]pyridin-3-yl]benzamide]: the IC50 on SIK1, against SIK2 and at SIK3 was 0.01 to 10 nM throughout. For the same molecule, in experiment [1], the “IL-10 FCmax median” value is “++ (>1.5-4.5)”.

Take `COc1cc(-c2cnc3cc(OCCCN4CCCC(O)C4)ccn23)cc(OC(F)F)c1C(=O)NC1CC1` (centres unmarked) [compound 328, N-cyclopropyl-2-(difluoromethoxy)-4-[7-[3-(3-hydroxy-1-piperidyl)propoxy]imidazo [1,2-a]pyridin-3-yl]-6-methoxy-benzamide]: the IC50 against SIK1 fell in the range of 10 to 100 nM; on SIK2, 0.01 to 10 nM; at SIK3, 0.01 to 10 nM. Moreover, the “IL-10 FCmax median” value in experiment [1] is reported as “++ (>1.5-4.5)”.

Regarding `CCOC(=O)C1(F)CCN(CC(O)COc2ccn3c(-c4cc(OC)c(C(=O)NC5CC5)c(OC(F)F)c4)cnc3c2)CC1` (centres unmarked) [compound 384, ethyl 1-[3-[3-[4-(cyclopropylcarbamoyl)-3-(difluoromethoxy)-5-methoxy-phenyl]imidazo[1,2-a]pyridin-7-yl]oxy-2-hydroxy-propyl]-4-fluoro-piperidine-4-carboxylate], the IC50 was 10 to 100 nM against SIK1, 0.01 to 10 nM on SIK2 and 0.01 to 10 nM on SIK3. The “IL-10 FCmax median” value in experiment [1] is “++ (>1.5-4.5)”.
